Assay results reported in ChEMBL document CHEMBL5303573, “Mapping human microbiome drug metabolism by gut bacteria and their genes” (Nature, 2019).

How the values were obtained:
[1] = segatella copri, 12 h, 2 µM
Description: The drug is tested on Prevotella copri strain: DSM18205 for biotransformation. The drug concentrations were measured before and after a 12-h incubation by liquid-chromatography-coupled mass spectrometry (LC–MS)

[2] = The drug is tested on Bacteroides fragilis strain: ATCC43859 for biotransformation. The drug concentrations were measured before and after a 12-h incubation by liquid-chromatography-coupled mass spectrometry (LC–MS); conditions: 2 µM
[3] = The drug is tested on Bacteroides ovatus strain: ATCC8483 for biotransformation. The drug concentrations were measured before and after a 12-h incubation by liquid-chromatography-coupled mass spectrometry (LC–MS); conditions: 2 µM
[4] = The drug is tested on Bifidobacterium breve strain: DSM20213 for biotransformation. The drug concentrations were measured before and after a 12-h incubation by liquid-chromatography-coupled mass spectrometry (LC–MS); conditions: 2 µM
[5] = The drug is tested on Eubacterium hallii strain: DSM3353 for biotransformation. The drug concentrations were measured before and after a 12-h incubation by liquid-chromatography-coupled mass spectrometry (LC–MS); conditions: anaerobutyricum hallii, 2 µM
[6] = akkermansia muciniphila, 12 h, 2 µM
Description: The drug is tested on Akkermansia muciniphila strain: ATCC BAA-835 for biotransformation. The drug concentrations were measured before and after a 12-h incubation by liquid-chromatography-coupled mass spectrometry (LC–MS)

[7] = limosilactobacillus reuteri cf48-3a, 12 h, 2 µM
Description: The drug is tested on Lactobacillus reuteri CF48-3A strain: BEI HM-102 for biotransformation. The drug concentrations were measured before and after a 12-h incubation by liquid-chromatography-coupled mass spectrometry (LC–MS)

[8] = The drug is tested on Bacteroides coprophilus strain: DSM18228 for biotransformation. The drug concentrations were measured before and after a 12-h incubation by liquid-chromatography-coupled mass spectrometry (LC–MS); conditions: 2 µM
[9] = The drug is tested on Escherichia coli strain: BW25113 for biotransformation. The drug concentrations were measured before and after a 12-h incubation by liquid-chromatography-coupled mass spectrometry (LC–MS); conditions: 2 µM
[10] = bifidobacterium adolescentis, 12 h, 2 µM
Description: The drug is tested on Bifidobacterium adolescentis strain: ATCC 15703 for biotransformation. The drug concentrations were measured before and after a 12-h incubation by liquid-chromatography-coupled mass spectrometry (LC–MS)

[11] = The drug is tested on Bacteroides uniformis strain: ATCC8492 for biotransformation. The drug concentrations were measured before and after a 12-h incubation by liquid-chromatography-coupled mass spectrometry (LC–MS); conditions: 2 µM
[12] = The drug is tested on Enterococcus faecalis strain: V583 for biotransformation. The drug concentrations were measured before and after a 12-h incubation by liquid-chromatography-coupled mass spectrometry (LC–MS); conditions: 2 µM
[13] = The drug is tested on Odoribacter splanchnicus strain: fecal isolate for biotransformation. The drug concentrations were measured before and after a 12-h incubation by liquid-chromatography-coupled mass spectrometry (LC–MS); conditions: 2 µM
[14] = The drug is tested on Subdoligranulum variabile strain: DSM15176 for biotransformation. The drug concentrations were measured before and after a 12-h incubation by liquid-chromatography-coupled mass spectrometry (LC–MS); conditions: 2 µM
[15] = bacteroides fragilis, 12 h, 2 µM
Description: The drug is tested on Bacteroides fragilis strain: 3397 (T10) for biotransformation. The drug concentrations were measured before and after a 12-h incubation by liquid-chromatography-coupled mass spectrometry (LC–MS)

[16] = The drug is tested on Clostridium sporogenes strain: ATCC15579 for biotransformation. The drug concentrations were measured before and after a 12-h incubation by liquid-chromatography-coupled mass spectrometry (LC–MS); conditions: 2 µM
[17] = The drug is tested on Eubacterium ventriosum strain: ATCC27560 for biotransformation. The drug concentrations were measured before and after a 12-h incubation by liquid-chromatography-coupled mass spectrometry (LC–MS); type: ADME; design: dose 2 uM, timepoint 0 vs 12 hours; conditions: 2 µM
[18] = roseburia intestinalis, 12 h, 2 µM
Description: The drug is tested on Roseburia intestinalis strain: L1-82 for biotransformation. The drug concentrations were measured before and after a 12-h incubation by liquid-chromatography-coupled mass spectrometry (LC–MS)

[19] = The drug is tested on Clostridium sp. strain: fecal isolate for biotransformation. The drug concentrations were measured before and after a 12-h incubation by liquid-chromatography-coupled mass spectrometry (LC–MS); conditions: 2 µM

Structure (SMILES)	Bacterial Biotransformation [1]	Bacterial Biotransformation [2]	Bacterial Biotransformation [3]	Bacterial Biotransformation [4]	Bacterial Biotransformation [5]	Bacterial Biotransformation [6]	Bacterial Biotransformation [7]	Bacterial Biotransformation [8]	Bacterial Biotransformation [9]	Bacterial Biotransformation [10]	Bacterial Biotransformation [11]	Bacterial Biotransformation [12]	Bacterial Biotransformation [13]	Bacterial Biotransformation [14]	Bacterial Biotransformation [15]	Bacterial Biotransformation [16]	Bacterial Biotransformation [17]	Bacterial Biotransformation [18]	Bacterial Biotransformation [19]
CN(C)CCOC(C)(c1ccccc1)c1ccccn1.O=C(O)CCC(=O)O (centres undefined) [DOXYLAMINE SUCCINATE]	Compound NOT metabolized	Compound NOT metabolized	Compound NOT metabolized	Compound NOT metabolized	Compound NOT metabolized	Compound NOT metabolized	Compound NOT metabolized	Compound NOT metabolized	Compound NOT metabolized	Compound NOT metabolized	Compound NOT metabolized	Compound NOT metabolized	Compound NOT metabolized	Compound NOT metabolized	Compound NOT metabolized	Compound NOT metabolized	Compound NOT metabolized	Compound NOT metabolized	–
COc1ccc(Cc2nccc3cc(OC)c(OC)cc23)cc1OC [PAPAVERINE]	Compound NOT metabolized	Compound NOT metabolized	Compound NOT metabolized	Compound NOT metabolized	Compound NOT metabolized	–	Compound NOT metabolized	Compound NOT metabolized	Compound NOT metabolized	Compound NOT metabolized	–	Compound NOT metabolized	–	Compound NOT metabolized	Compound NOT metabolized	Compound NOT metabolized	Compound NOT metabolized	Compound NOT metabolized	Compound NOT metabolized
O=C(CCCN1CCC(O)(c2ccc(Cl)cc2)CC1)c1ccc(F)cc1 [HALOPERIDOL]	Compound NOT metabolized	Compound NOT metabolized	Compound NOT metabolized	Compound NOT metabolized	Compound NOT metabolized	Compound NOT metabolized	Compound NOT metabolized	–	Compound NOT metabolized	Compound NOT metabolized	–	Compound NOT metabolized	Compound NOT metabolized	Compound NOT metabolized	Compound NOT metabolized	Compound NOT metabolized	Compound NOT metabolized	Compound NOT metabolized	–
CCN(CC)CCNC(=O)c1cc(Cl)c(N)cc1OC [METOCLOPRAMIDE]	Compound NOT metabolized	Compound NOT metabolized	Compound NOT metabolized	Compound NOT metabolized	Compound NOT metabolized	–	Compound NOT metabolized	Compound NOT metabolized	Compound NOT metabolized	Compound NOT metabolized	Compound NOT metabolized	Compound NOT metabolized	Compound NOT metabolized	Compound NOT metabolized	Compound NOT metabolized	Compound NOT metabolized	Compound NOT metabolized	Compound NOT metabolized	–
CN(C)CC(c1ccc(O)cc1)C1(O)CCCCC1.O=C(O)CCC(=O)O (centres undefined) [DESVENLAFAXINE SUCCINATE]	Compound NOT metabolized	Compound NOT metabolized	Compound NOT metabolized	Compound NOT metabolized	Compound NOT metabolized	Compound NOT metabolized	–	Compound NOT metabolized	Compound NOT metabolized	Compound NOT metabolized	Compound NOT metabolized	Compound NOT metabolized	Compound NOT metabolized	Compound NOT metabolized	Compound NOT metabolized	Compound NOT metabolized	Compound NOT metabolized	Compound NOT metabolized	Compound NOT metabolized
CN1CCOC(c2ccccc2)c2ccccc2C1 (centres undefined) [NEFOPAM]	Compound NOT metabolized	Compound NOT metabolized	Compound NOT metabolized	Compound NOT metabolized	Compound NOT metabolized	–	Compound NOT metabolized	Compound NOT metabolized	–	Compound NOT metabolized	–	Compound NOT metabolized	–	Compound NOT metabolized	Compound NOT metabolized	–	Compound NOT metabolized	Compound NOT metabolized	–
CC(C)N(CCC(C(N)=O)(c1ccccc1)c1ccccn1)C(C)C.O=P(O)(O)O (centres undefined) [DISOPYRAMIDE PHOSPHATE]	Compound NOT metabolized	Compound NOT metabolized	Compound NOT metabolized	Compound NOT metabolized	Compound NOT metabolized	Compound NOT metabolized	Compound NOT metabolized	Compound NOT metabolized	–	Compound NOT metabolized	–	Compound NOT metabolized	Compound NOT metabolized	Compound NOT metabolized	Compound NOT metabolized	–	Compound NOT metabolized	Compound NOT metabolized	–
CN1C(=O)CC(C)(c2ccccc2)C1=O (centres undefined) [METHSUXIMIDE]	Compound NOT metabolized	Compound NOT metabolized	Compound NOT metabolized	Compound NOT metabolized	Compound NOT metabolized	–	–	Compound NOT metabolized	Compound metabolized	Compound NOT metabolized	Compound NOT metabolized	Compound NOT metabolized	Compound NOT metabolized	Compound NOT metabolized	Compound NOT metabolized	Compound NOT metabolized	Compound NOT metabolized	–	Compound metabolized
